According to US9029531B2 (Agios Pharmaceuticals, Inc., priority 2012, dated 2015):

What follows are molecules tested against T1, glutaminase (GAC) (Homo sapiens, UniProt O94925) (assay: Glutaminase coupled endpoint enzymatic assay (Example A)). Details: inhibition of glutaminase; assay of Example A or Example B.
T1 sequence (O94925 55-598 isoform O94925-3 limits assumed): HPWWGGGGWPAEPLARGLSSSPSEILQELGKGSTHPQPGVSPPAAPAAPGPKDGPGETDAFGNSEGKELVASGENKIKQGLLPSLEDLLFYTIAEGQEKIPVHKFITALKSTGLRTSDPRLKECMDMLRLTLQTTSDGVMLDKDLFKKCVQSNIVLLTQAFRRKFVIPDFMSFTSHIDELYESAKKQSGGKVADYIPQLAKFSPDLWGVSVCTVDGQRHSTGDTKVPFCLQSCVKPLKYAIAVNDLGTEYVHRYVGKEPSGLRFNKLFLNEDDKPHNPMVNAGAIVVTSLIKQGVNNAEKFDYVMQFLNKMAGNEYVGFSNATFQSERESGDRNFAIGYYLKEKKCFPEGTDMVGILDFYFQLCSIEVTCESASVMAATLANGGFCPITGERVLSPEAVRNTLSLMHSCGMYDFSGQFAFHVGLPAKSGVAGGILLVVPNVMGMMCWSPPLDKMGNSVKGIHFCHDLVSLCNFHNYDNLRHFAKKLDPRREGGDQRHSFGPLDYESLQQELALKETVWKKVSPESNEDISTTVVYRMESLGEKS
Assay type: biochemical
From the text: In certain embodiments, exemplary compounds of Formula I include the compounds described in Table 1 and in the Examples. A compound described herein may be tested for its ability to inhibit glutaminase, e.g., by an assay as described in the Examples. For simplicity, the inhibition activity of these compounds is represented as an IC50 tested in an assay of Example A or Example B in Table 1. […] “N/A” refers to compounds wherein the IC50 is unavailable.
In this example, the enzymatic activity of glutaminase is measured through a coupled endpoint assay. Glutamine and phosphate are supplied to GAC at a concentration equal to Km and AC50, respectively, and GAC concentration is adjusted to give a linear reaction for 60 minutes. The glutamate produced is converted to 2-OG by a kinetic excess of glutamate dehydrogenase. This second step is configured for 2×Km for NAD, since excess NAD is inhibitory. However, a kinetic excess of the third coupling enzyme, diaphorase, recycles NAD from NADH to keep the NAD concentration constant during the timecourse of the assay. Diaphorase, also supplied in kinetic excess, oxidizes NADH produced by GDH back to NAD with the concomitant reduction of rezasurin to the highly fluorescent resorufin. Resorufin in measured after the assay is stopped with SDS by Ex544/Em590. A reduction in the signal indicates inhibition of some component of the coupled enzyme system. Prospective hits are counterscreened against GDH/diaphorase alone to remove hits to the coupling enzyme system in a second assay.
2. Buffers • 2× Buffer (300 mM NaCl, 100 mM HEPES pH 8.5, 0.1% BSA, 0.5 mM EDTA, 100 mM sodium phosphate pH 8.5) • 5× Substrate Mix (1× Buffer final concentration, with 13 mM glutamine, 100 μM resazurin, 50 μg/ml diaphorase) • 1.2× Enzyme Mix (1× Buffer final concentration, with 0.875 μg/ml GAC, 1.56 mM NAD, 6.25 units/ml GDH) • Stop Mix (6% SDS in ddH2O) Reaction Procedure • 1. Add 1 μl compound in 100% DMSO • 2. Add 40 μl of Enzyme Mix and incubate for 60 minute at room temperature • 3. Add 10 μl of Substrate Mix to start reaction • 4. Stop reaction with 25 μl of 6% SDS and read Ex544 Em 590

Row | SMILES | IC50 [nM]
1 | O=C(Cc1ccccc1)Nc1nnc(C[C@H]2C[C@@H]2Cc2nnc(NC(=O)Cc3ccccc3)s2)s1 (racemic) [Compound 1, N,N′-(5,5′-(trans-cyclopropane-1,2-diylbis(methylene))bis(1,3,4-thiadiazole-5,2-diyl))bis(2-phenylacetamide)] | 100 to 500
2 | O=C(Cc1ccccn1)Nc1nnc(C[C@H]2C[C@@H]2Cc2nnc(NC(=O)Cc3ccccn3)s2)s1 (racemic) [Compound 3, N,N′-(5,5′-(trans-cyclopropane-1,2-diylbis(methylene))bis(1,3,4-thiadiazole-5,2-diyl))bis(2-(pyridin-2-yl)acetamide)] | 500 to 1000
3 | O=C(Cc1cccnc1)Nc1nnc(C[C@H]2C[C@@H]2Cc2nnc(NC(=O)Cc3cccnc3)s2)s1 (racemic) [Compound 5, N,N′-(5,5′-(trans-cyclopropane-1,2-diylbis(methylene))bis(1,3,4-thiadiazole-5,2-diyl))bis(2-(pyridin-3-yl)acetamide)] | 100 to 500
4 | O=C(Cc1cccs1)Nc1nnc(C[C@H]2C[C@@H]2Cc2nnc(NC(=O)Cc3cccs3)s2)s1 (racemic) [Compound 6, N,N′-(5,5′-(trans-cyclopropane-1,2-diylbis(methylene))bis(1,3,4-thiadiazole-5,2-diyl))bis(2-(thiophen-2-yl)acetamide)] | 100 to 500
5 | COc1ccc(CC(=O)Nc2nnc([C@@H]3CCC[C@@H](c4nnc(NC(=O)Cc5ccc(OC)cc5)s4)C3)s2)cc1 (stereo in doubt) [Compound 52, N,N′-(5,5′-((1S,3S)-cyclohexane-1,3-diyl)bis(1,3,4-thiadiazole-5,2-diyl))bis(2-(4-methoxyphenyl)acetamide)] | < 100
6 | O=C(Cc1ccccn1)Nc1nnc(CC2CCC(Cc3nnc(NC(=O)Cc4ccccn4)s3)C2)s1 (centres unmarked) [Compound 4, N,N′-(5,5′-(cyclopentane-1,3-diylbis(methylene))bis(1,3,4-thiadiazole-5,2-diyl))bis(2-(pyridin-2-yl)acetamide)] | 2000 to 10000
7 | O=C(Cc1ccccc1)Nc1nnc(CC2CC(Cc3nnc(NC(=O)Cc4ccccc4)s3)C2)s1 (centres unmarked) [Compound 8, N,N′-(5,5′-(cyclobutane-1,3-diylbis(methylene))bis(1,3,4-thiadiazole-5,2-diyl))bis(2-phenylacetamide)] | 100 to 500
8 | O=C(Cc1ccccc1)Nc1nnc([C@H]2CCC[C@H](c3nnc(NC(=O)Cc4ccccc4)s3)C2)s1 [Compound 9, N,N′-(5,5′-((1S,3S)-cyclohexane-1,3-diyl)bis(1,3,4-thiadiazole-5,2-diyl))bis(2-phenylacetamide)] | < 100
9 | O=C(Cc1ccccc1)Nc1nnc([C@@H]2CCC[C@H](c3nnc(NC(=O)Cc4ccccc4)s3)C2)s1 [Compound 10, N,N′-(5,5′-((1R,3S)-cyclohexane-1,3-diyl)bis(1,3,4-thiadiazole-5,2-diyl))bis(2-phenylacetamide)] | 1000 to 2000
10 | O=C(Cc1ccccc1)Nc1nnc([C@@H]2CCC[C@@H](c3nnc(NC(=O)Cc4ccccc4)s3)C2)s1 [Compound 11, N,N′-(5,5′-((1R,3R)-cyclohexane-1,3-diyl)bis(1,3,4-thiadiazole-5,2-diyl))bis(2-phenylacetamide)] | < 100
11 | CC(=O)Nc1nnc([C@H]2CCC[C@H](c3nnc(NC(C)=O)s3)C2)s1 [Compound 12, N,N′-(5,5′-((1S,3S)-cyclohexane-1,3-diyl)bis(1,3,4-thiadiazole-5,2-diyl))diacetamide] | 500 to 1000
12 | CC(=O)Nc1nnc([C@@H]2CCC[C@@H](c3nnc(NC(=O)Cc4cn(C)c5ccccc45)s3)C2)s1 [Compound 13] | 100 to 500
13 | O=C(Cc1ccccc1)Nc1nnc([C@@H]2CC[C@H](c3nnc(NC(=O)Cc4ccccc4)s3)C2)s1 [Compound 18, N,N′-(5,5′-((1R,3S)-cyclopentane-1,3-diyl)bis(1,3,4-thiadiazole-5,2-diyl))bis(2-phenylacetamide)] | 1000 to 2000
14 | O=C(Cc1ccccc1)Nc1nnc([C@@H]2CC[C@@H](c3nnc(NC(=O)Cc4ccccc4)s3)C2)s1 [Compound 19, N,N′-(5,5′-((1R,3R)-cyclopentane-1,3-diyl)bis(1,3,4-thiadiazole-5,2-diyl))bis(2-phenylacetamide)] | 100 to 500
15 | O=C(Cc1cccc2[nH]ccc12)Nc1nnc([C@H]2CCC[C@H](c3nnc(NC(=O)Cc4cccc5[nH]ccc45)s3)C2)s1 [Compound 24, N,N′-(5,5′-((1S,3S)-cyclohexane-1,3-diyl)Obis(1,3,4-thiadiazole-5,2-diyl))bis(2-(1H-indol-4-yl)acetamide)] | < 100
16 | O=C(Cc1cccc2[nH]ccc12)Nc1nnc([C@@H]2CCC[C@H](c3nnc(NC(=O)Cc4cccc5[nH]ccc45)s3)C2)s1 [Compound 25, N,N′-(5,5′-((1S,3R)-cyclohexane-1,3-diyl)bis(1,3,4-thiadiazole-5,2-diyl))bis(2-(1H-indol-4-yl)acetamide)] | 500 to 1000
17 | O=C(Cc1ccccn1)Nc1nnc([C@@H]2CC[C@H](c3nnc(NC(=O)Cc4ccccn4)s3)C2)s1 [Compound 32] | 500 to 1000
18 | O=C(Cc1ccccc1)Nc1nnc(C2CCCC(c3nnc(NC(=O)Cc4ccccc4)s3)C2)s1 (centres unmarked) [Compound 36] | 1000 to 2000
19 | CC(C)C(=O)Nc1nnc([C@@H]2CCC[C@@H](c3nnc(NC(=O)C(C)C)s3)C2)s1 [Compound 38] | 100 to 500
20 | Nc1ccccc1CC(=O)Nc1nnc([C@H]2CCC[C@H](c3nnc(NC(=O)Cc4ccccc4N)s3)C2)s1 [Compound 56, N,N′-(5,5′-((1S,3S)-cyclohexane-1,3-diyl)bis(1,3,4-thiadiazole-5,2-diyl))bis(2-(2-aminophenyl)acetamide)] | < 100

Next, values leading:

Row | IC50 [nM] | SMILES
21 | < 100 | COc1cccnc1CC(=O)Nc1nnc([C@H]2CCC[C@H](c3nnc(NC(=O)Cc4ncccc4OC)s3)C2)s1 (racemic) [Compound 116]
22 | 2000 to 10000 | O=C(Cc1ccccn1)Nc1nnc(CC2CC(Cc3nnc(NC(=O)Cc4ccccn4)s3)C2)s1 (centres unmarked) [Compound 7, N,N′-(5,5′-(cyclobutane-1,3-diylbis(methylene))bis(1,3,4-thiadiazole-5,2-diyl))bis(2-(pyridin-2-yl)acetamide)]
23 | 500 to 1000 | Cn1cc(CC(=O)Nc2nnc([C@@H]3CCC[C@H](c4nnc(NC(=O)Cc5cn(C)c6ccccc56)s4)C3)s2)c2ccccc21 [Compound 15, N,N′-(5,5′-((1R,3S)-cyclohexane-1,3-diyl)bis(1,3,4-thiadiazole-5,2-diyl))bis(2-(1-methyl-1H-indol-3-yl)acetamide)]
24 | 100 to 500 | Cn1cc(CC(=O)Nc2nnc([C@H]3CCC[C@H](c4nnc(NC(=O)Cc5cn(C)c6ccccc56)s4)C3)s2)c2ccccc21 [Compound 16, N,N′-(5,5′-((1S,3S)-cyclohexane-1,3-diyl)bis(1,3,4-thiadiazole-5,2-diyl))bis(2-(1-methyl-1H-indol-3-yl)acetamide)]
25 | 1000 to 2000 | O=C(Cc1ccccn1)Nc1nnc([C@@H]2CCC[C@H](c3nnc(NC(=O)Cc4ccccn4)s3)C2)s1 [Compound 20, N,N′-(5,5′-((1R,3S)-cyclohexane-1,3-diyl)bis(1,3,4-thiadiazole-5,2-diyl))bis(2-(pyridin-2-yl)acetamide)]
26 | < 100 | O=C(Cc1c[nH]c2ccccc12)Nc1nnc([C@H]2CCC[C@H](c3nnc(NC(=O)Cc4c[nH]c5ccccc45)s3)C2)s1 [Compound 22]
27 | 100 to 500 | O=C(Cc1c[nH]c2ccccc12)Nc1nnc([C@@H]2CCC[C@H](c3nnc(NC(=O)Cc4c[nH]c5ccccc45)s3)C2)s1 [Compound 23, N,N′-(5,5′-((1S,3R)-cyclohexane-1,3-diyl)bis(1,3,4-thiadiazole-5,2-diyl))bis(2-(1H-indol-3-yl)acetamide)]
28 | 100 to 500 | CC(=O)Nc1nnc([C@@H]2CCC[C@@H](c3nnc(NC(=O)Cc4ccccn4)s3)C2)s1 [Compound 26]
29 | < 100 | O=C(Cc1ccccn1)Nc1nnc([C@@H]2CC[C@@H](c3nnc(NC(=O)Cc4ccccn4)s3)C2)s1 [Compound 33]
